Experimental data published in the NIST ThermoML archive (doi:10.1021/je200730m).

Conditions: Liquid, Closed cell (Static) method

CCCCCC(=O)OCC [ethyl hexanoate]
Conditions	vapor or sublimation pressure [kPa]
253.41 K	0.00344
263.26 K	0.0106
283.06 K	0.0663
293.05 K	0.144
303.03 K	0.291
313.15 K	0.562
323.18 K	1.018
333.11 K	1.781
343.09 K	2.978
351.97 K	4.553
362.1 K	7.184
372.13 K	10.93
382.15 K	16.07
392.23 K	23.19
402.19 K	32.56
412.21 K	44.9
422.19 K	60.62
432.28 K	80.76
442.29 K	105.57
452.34 K	136.73
462.43 K	174.6

CCCCCCCCCCCCCC(=O)OCC [ethyl tetradecanoate]
Conditions	vapor or sublimation pressure [kPa]
333.22 K	0.00147
343.19 K	0.00361
353.15 K	0.00775
363.09 K	0.0163
371.72 K	0.0302
382.03 K	0.0572
391.87 K	0.105
401.89 K	0.187
411.93 K	0.322
421.97 K	0.539
432.22 K	0.887
442.39 K	1.394
452.25 K	2.127
462.3 K	3.2

CCCCCCCCCCCC(=O)OCC [ethyl dodecanoate]
Conditions	vapor or sublimation pressure [kPa]
313.1 K	0.00183
351.88 K	0.0346
362.1 K	0.0674
372.12 K	0.124
382.17 K	0.229
392.24 K	0.399
402.2 K	0.669
422.15 K	1.695
432.26 K	2.647
442.27 K	3.986
452.31 K	5.804
462.43 K	8.49

CCCCCCCCCC(=O)OCC [ethyl decanoate]
Conditions	vapor or sublimation pressure [kPa]
303.1 K	0.00446
313.16 K	0.0105
333.23 K	0.0478
343.2 K	0.0952
353.16 K	0.181
363.12 K	0.328
412.15 K	3.65
422.13 K	5.472
432.24 K	8.07
442.23 K	11.55
452.28 K	16.28
462.37 K	22.35

CCCCCCCC(=O)OCC [ethyl octanoate]
Conditions	vapor or sublimation pressure [kPa]
273.26 K	0.00219
283.08 K	0.00627
293.05 K	0.0156
303.09 K	0.035
313.2 K	0.0757
323.31 K	0.152
351.9 K	0.869
362.1 K	1.487
372.06 K	2.432
382.13 K	3.872
392.19 K	5.904
402.13 K	8.723
412.13 K	12.67
422.12 K	18.04
432.22 K	25.22
442.26 K	34.49
452.3 K	46.42
